The numbers were not newly measured in patent US7611733B2, “Nanoparticle formulations of platinum compounds” (priority 2004, dated 2009), which cites them from elsewhere.

Structures can show the parent of a compound that is named as a salt.

This data set concerns variety of tumor cell lines.

On to `[NH2][Pt+]([NH2])([Cl])[NH]CCCCCC[NH2+]CC[NH2+]CCCCCC[NH][Pt+]([NH2])([NH2])[Cl]` [Formula II, bis{trans(diammine)(chloro)platinum(II)}μ(1,16-diamino-7,10-diazahexadecane-N1,N16) dinitrate salt. 2HNO3], for which the antitumor activity result is “outstanding antitumor activity”.
